# Test results from US7618816B2, “Metal-binding therapeutic peptides” (Ontherix, Inc., priority 2005, dated 2009).
# “And” between values parts separate entries of the source, which are not always exact repeats. Equal values may be shown once. Where a SMILES comes first, the peptide text is derived from it. Where no end group is shown, it is not given here. The star is where a group is joined. Biotin = O=C1N[C@H]2[C@H](CS[C@H]2CCCCC(=O)*)N1
# Assays:
# CCRF-CEM = assay: Cell survival, mutants of MDOKSH peptide; format: cell-based; settings: for CELL SURVIVAL, CCRF-CEM: expressed relative to the activity of the parental peptide MDOKSH
# Excerpt: (§1) In order to maximize the effects of cytotoxic peptides, alanine scanning of one peptide (MDOKSH) was undertaken as an illustration. 48 mutants were synthesized, purified and tested in CCRF-CEM and MCF-7. The cytotoxicity of the 48 peptides was strongly correlated in the two cell line assay systems (r=0.606). […] The core MBD sequence may, if desired, be excluded from the region to be explored by mutagenesis, in order to expedite the experiment.
# MCF-7 [1] = assay: Cell survival, mutants of MDOKSH peptide; format: cell-based; design: CELL SURVIVAL, MCF-7: unit not given here; settings: for CELL SURVIVAL, MCF-7: expressed relative to the activity of the parental peptide MDOKSH
# Excerpt: as §1
# MCF-7 [2] = assay: Cytotoxicity of MBD therapeutic peptides; format: cell-based, human; settings: relative to equal dose of control MBD peptide, only p < 0.05 shown, 1-4 experiments
# Excerpt: (§2) Also, peptides such as NFKB and CSK are of interest, targeting stress-coping mechanisms such as inflammation. The breast cancer lines tested are HS578T, MX-1, MDA-MB231, MDA-MB435 and MCF7. Leukemia cell lines tested for cytotoxicity effects with these MBD-tagged peptides are CCRF-CEM, RPMI-8226 and MOLT-4. Overall, MCF-7 and CCRF-CEM yield the most consistent data and the strongest effect across the board (Table 12). In addition, elevated levels of cytotoxicity are observed when multiple peptides are combined while keeping the overall amount of peptide added constant. Cytotoxicity increases with the number of peptides added per cocktail and is further enhanced by combining peptide cocktail treatment with paclitaxel.
# MDA-MB231 = assay: Cytotoxicity of MBD therapeutic peptides; format: cell-based, human; settings: relative to equal dose of control MBD peptide, only p < 0.05 shown, 1-4 experiments
# Excerpt: as §2
# MOLT-4 = assay: Cytotoxicity of MBD therapeutic peptides; format: cell-based, human; settings: relative to equal dose of control MBD peptide, only p < 0.05 shown, 1-4 experiments
# Excerpt: as §2
# SR = assay: Cytotoxicity of MBD therapeutic peptides; format: cell-based; settings: relative to equal dose of control MBD peptide, only p < 0.05 shown, 1-4 experiments
# MDA-MB435 = assay: Cytotoxicity of MBD therapeutic peptides; format: cell-based; settings: relative to equal dose of control MBD peptide, only p < 0.05 shown, 1-4 experiments
# Excerpt: as §2
# cancer cells = assay: Selective cytotoxicity, cancer cells versus normal counterparts; format: cell-based, human
# Excerpt: as §2
# RPMI-8826 = assay: Cytotoxicity of MBD therapeutic peptides; format: cell-based, human; settings: relative to equal dose of control MBD peptide, only p < 0.05 shown, 1-4 experiments
# Excerpt: as §2
# [3] = tested on: shRNA containing the lambda nutR hairpin loop; assay: Bio-KGF binding of shRNA on Ni-NTA plate, Ribogreen; settings: for Ribogreen Fluorescence: mean of eight readings
# Excerpt: Peptide Bio-KGF binds shRNA: Bio-KGF peptide was synthesized by Genemed Synthesis, Inc. (S. San Francisco, Calif.) as a 40-mer containing an MBD sequence and an RNA-hairpin binding domain from the N-terminus of bacteriophage lambda N protein: Bio-KGF: (“N”-terminal biotin) . . . KGF YKK KQC RPS KGR KRG FCW AQT RRR ERR AEK QAQ WKA A . . . (“C” terminus) (SEQ ID NO: 11)
# An shRNA designed to silence the human beclin gene was designed to include a hairpin sequence corresponding to the NutR box of bacteriophage lambda mRNA (the binding target for the Bio-KGF peptide) and was amplified using the Silencer™ siRNA
# Various molar excess amounts of Bio-KGF (ranging from 63 pg to 2 ug per well; similar results were obtained across this range) were attached to a Ni-NTA plate (Qiagen Inc., Carlsbad, Calif. for 1 hour and blocked overnight with 3% BSA at 4 degrees C. in the refrigerator, and washed with PBS/Tween and TE buffers. RNA dilutions were added in TE buffer, incubated for 30 min on shaker, then for 30 min on bench at room temperature. After one wash with TE buffer, Ribogreen reagent (Ribogreen RNA Quantitation Reagent and Kit from Molecular Probes/Invitrogen) was added to the wells, incubated 5 minutes, and fluorescence was read on a fluorescent plate reader. The results are listed in Table 8 (each number is a mean of eight readings): […]
compound,measurement,setting,value
KKGFYKKKQCRPSKGRKRGFCWKPLYWDLYEI [Mutant 6],"CELL SURVIVAL, CCRF-CEM",CCRF-CEM,62.3 ± 5.0
same,"CELL SURVIVAL, MCF-7",MCF-7 [1],68.5 ± 6.5
KKGFYKKKQCRPSKGRKRGFCWKPLYWDLYEP [Mutant 11],"CELL SURVIVAL, CCRF-CEM",CCRF-CEM,64.8 ± 7.2
same,"CELL SURVIVAL, MCF-7",MCF-7 [1],59.6 ± 10.7
KKGFYKKKQCRPSKGRKRGFCWAPLYWDLYE [Mutant 28],"CELL SURVIVAL, CCRF-CEM",CCRF-CEM,60.1 ± 11.1
same,"CELL SURVIVAL, MCF-7",MCF-7 [1],52.7 ± 11.7
CC[C@H](C)[C@H](NC(=O)[C@H](CC(=O)O)NC(=O)[C@H](CO)NC(=O)[C@H](Cc1ccccc1)NC(=O)[C@@H](NC(=O)[C@H](CCC(=O)O)NC(=O)CCCC[C@@H]1SC[C@@H]2NC(=O)N[C@@H]21)[C@@H](C)O)C(=O)N[C@@H](Cc1c[nH]c2ccccc12)C(=O)N[C@@H](CCCCN)C(=O)N[C@@H](CC(C)C)C(=O)N[C@@H](CC(C)C)C(=O)N[C@@H](CCCCN)C(=O)N[C@@H](CCCCN)C(=O)NCC(=O)N[C@@H](Cc1ccccc1)C(=O)N[C@@H](Cc1ccc(O)cc1)C(=O)N[C@@H](CCCCN)C(=O)N[C@@H](CCCCN)C(=O)N[C@@H](CCCCN)C(=O)N[C@@H](CCC(N)=O)C(=O)N[C@@H](CS)C(=O)N[C@@H](CCCNC(=N)N)C(=O)N1CCC[C@H]1C(=O)N[C@@H](CO)C(=O)N[C@@H](CCCCN)C(=O)NCC(=O)N[C@@H](CCCNC(=N)N)C(=O)N[C@@H](CCCCN)C(=O)N[C@@H](CCCNC(=N)N)C(=O)NCC(=O)N[C@@H](Cc1ccccc1)C(=O)N[C@@H](CS)C(=O)N[C@@H](Cc1c[nH]c2ccccc12)C(=O)O [PEP-3] (Biotin-ETFSDIWKLLKKGFYKKKQCRPSKGRKRGFCW-OH),"% viability @ 48 hr/25 ug/ml peptide, MCF-7",MCF-7 [2],27.5 ± 15.2% and 30.6 ± 5.7% and 21.7 ± 1.5%
same,"% viability @ 48 hr/25 ug/ml peptide, MDA-MB231",MDA-MB231,32.9 ± 1.7%
same,"% viability @ 48 hr/25 ug/ml peptide, MOLT-4",MOLT-4,73.0 ± 5.5% and 58.3 ± 16.5%
same,"% viability @ 48 hr/25 ug/ml peptide, SR",SR,75.9 ± 15.7%
same,"% viability @ 48 hr/25 ug/ml peptide, MDA-MB435",MDA-MB435,16.0 ± 2.0% and 27.0 ± 3.9%
same,Cytotoxic effect on cancer cells versus normal counterparts (in words),cancer cells,strong cytotoxic effect on cancer cells but not their human counterparts
CC(C)C[C@H](NC(=O)[C@H](CC(C)C)NC(=O)[C@H](CCCCN)NC(=O)[C@H](Cc1c[nH]c2ccccc12)NC(=O)[C@H](CC(C)C)NC(=O)[C@H](CC(=O)O)NC(=O)[C@H](CO)NC(=O)[C@H](Cc1ccccc1)NC(=O)[C@@H](NC(=O)[C@H](CCC(=O)O)NC(=O)CCCC[C@@H]1SC[C@@H]2NC(=O)N[C@@H]21)[C@@H](C)O)C(=O)N[C@@H](CCCCN)C(=O)N[C@@H](CCCCN)C(=O)NCC(=O)N[C@@H](Cc1ccccc1)C(=O)N[C@@H](Cc1ccc(O)cc1)C(=O)N[C@@H](CCCCN)C(=O)N[C@@H](CCCCN)C(=O)N[C@@H](CCCCN)C(=O)N[C@@H](CCC(N)=O)C(=O)N[C@@H](CS)C(=O)N[C@@H](CCCNC(=N)N)C(=O)N1CCC[C@H]1C(=O)N[C@@H](CO)C(=O)N[C@@H](CCCCN)C(=O)NCC(=O)N[C@@H](CCCNC(=N)N)C(=O)N[C@@H](CCCCN)C(=O)N[C@@H](CCCNC(=N)N)C(=O)NCC(=O)N[C@@H](Cc1ccccc1)C(=O)N[C@@H](CS)C(=O)N[C@@H](Cc1c[nH]c2ccccc12)C(=O)O [PEP-1] (Biotin-ETFSDLWKLLKKGFYKKKQCRPSKGRKRGFCW-OH),Cytotoxic effect on cancer cells versus normal counterparts (in words),cancer cells,strong cytotoxic effect on cancer cells but not their human counterparts
CC(C)C[C@H](NC(=O)[C@H](C)NC(=O)[C@H](CCCCN)NC(=O)[C@H](Cc1c[nH]c2ccccc12)NC(=O)[C@H](CS)NC(=O)[C@H](Cc1ccccc1)NC(=O)CNC(=O)[C@H](CCCNC(=N)N)NC(=O)[C@H](CCCCN)NC(=O)[C@H](CCCNC(=N)N)NC(=O)CNC(=O)[C@H](CCCCN)NC(=O)[C@H](CO)NC(=O)[C@@H]1CCCN1C(=O)[C@H](CCCNC(=N)N)NC(=O)[C@H](CS)NC(=O)[C@H](CCC(N)=O)NC(=O)[C@H](CCCCN)NC(=O)[C@H](CCCCN)NC(=O)[C@H](CCCCN)NC(=O)[C@H](Cc1ccc(O)cc1)NC(=O)[C@H](Cc1ccccc1)NC(=O)CNC(=O)[C@H](CCCCN)NC(=O)[C@H](CCCCN)NC(=O)CCCC[C@@H]1SC[C@@H]2NC(=O)N[C@@H]21)C(=O)N[C@@H](Cc1ccc(O)cc1)C(=O)N[C@@H](Cc1c[nH]c2ccccc12)C(=O)N[C@@H](CC(=O)O)C(=O)N[C@@H](CC(C)C)C(=O)N[C@@H](Cc1ccc(O)cc1)C(=O)N[C@@H](CCC(=O)O)C(=O)O [Mutant 27] (Biotin-KKGFYKKKQCRPSKGRKRGFCWKALYWDLYE-OH),Cytotoxicity versus parental MDOKSH (in words),CCRF-CEM; CCRF-CEM,greatly enhanced cytotoxicity
same,Cytotoxicity versus parental MDOKSH (in words),MCF-7 [1]; MCF-7,greatly enhanced cytotoxicity
KKGFYKKKQCRPSKGRKRGFCWKPLYWDLYEM [Mutant 9],"CELL SURVIVAL, CCRF-CEM",CCRF-CEM,63.8 ± 4.6
same,"CELL SURVIVAL, MCF-7",MCF-7 [1],56.8 ± 8.1
CC(C)C[C@H](NC(=O)[C@H](CC(=O)O)NC(=O)[C@H](Cc1c[nH]c2ccccc12)NC(=O)[C@H](Cc1ccc(O)cc1)NC(=O)[C@H](CC(C)C)NC(=O)[C@@H]1CCCN1C(=O)[C@H](CCCCN)NC(=O)[C@H](Cc1c[nH]c2ccccc12)NC(=O)[C@H](CS)NC(=O)[C@H](Cc1ccccc1)NC(=O)CNC(=O)[C@H](CCCNC(=N)N)NC(=O)[C@H](CCCCN)NC(=O)[C@H](CCCNC(=N)N)NC(=O)CNC(=O)[C@H](CCCCN)NC(=O)[C@H](CO)NC(=O)[C@@H]1CCCN1C(=O)[C@H](CCCNC(=N)N)NC(=O)[C@H](CS)NC(=O)[C@H](CCC(N)=O)NC(=O)[C@H](CCCCN)NC(=O)[C@H](CCCCN)NC(=O)[C@H](CCCCN)NC(=O)[C@H](Cc1ccc(O)cc1)NC(=O)[C@H](Cc1ccccc1)NC(=O)CNC(=O)[C@H](CCCCN)NC(=O)[C@H](CCCCN)NC(=O)CCCC[C@@H]1SC[C@@H]2NC(=O)N[C@@H]21)C(=O)N[C@@H](Cc1ccc(O)cc1)C(=O)N[C@@H](CCC(=O)O)C(=O)O [MDOKSH] (Biotin-KKGFYKKKQCRPSKGRKRGFCWKPLYWDLYE-OH),"CELL SURVIVAL, CCRF-CEM",CCRF-CEM,100
same,"CELL SURVIVAL, MCF-7",MCF-7 [1],100
Biotin-KKGFYKKKQCRPSKGRKRGFCWARIDDMSSRIDDLEKNIADL (cysteines drawn unpaired) [M9HSBP1],"% viability @ 48 hr/25 ug/ml peptide, MOLT-4",MOLT-4,77.1 ± 20.3%
same,"% viability @ 48 hr/25 ug/ml peptide, RPMI-8826",RPMI-8826,77.7 ± 5.2%
KGF YKK KQC RPS KGR KRG FCW AQT RRR ERR AEK QAQ WKA A (Biotin-KGFYKKKQCRPSKGRKRGFCWAQTRRRERRAEKQAQWKAA; cysteine pairing not given here) [Bio-KGF],Binding of shRNA (in words),[3],binds the shRNA
same,Ribogreen Fluorescence,[3]; 2.7 ng shRNA per well,853 ± 600
same,Ribogreen Fluorescence,[3]; 5.5 ng shRNA per well,2058 ± 781
same,Ribogreen Fluorescence,[3]; 11 ng shRNA per well,6016 ± 2977
same,Ribogreen Fluorescence,[3]; 22 ng shRNA per well,11924 ± 3650
same,Ribogreen Fluorescence,[3]; 44 ng shRNA per well,42053 ± 12769
same,Ribogreen Fluorescence,[3]; 88 ng shRNA per well,81819 ± 24656
KKGFYKKKQCRPSKGRKRGFCWKPLYWALYE [Mutant 23],"CELL SURVIVAL, CCRF-CEM",CCRF-CEM,74.5 ± 8.0
same,"CELL SURVIVAL, MCF-7",MCF-7 [1],58.8 ± 8.1
AKGFYKKKQCRPSKGRKRGFCWKPLYWDLYE [Mutant 48],"CELL SURVIVAL, CCRF-CEM",CCRF-CEM,71.8 ± 10.7
same,"CELL SURVIVAL, MCF-7",MCF-7 [1],61.6 ± 3.1
